Source: patent US9974305B2, “Fungicidal or bactericidal composition, and method for controlling diseases” (NISSAN CHEMICAL INDUSTRIES, LTD., priority 2014, dated 2018)
Where two headings read alike, the source gives them in different places.

Tests used:
[1] = test system: cucumber powdery mildew (Sphaerotheca cucurbitae); assay: Efficacy test on cucumber powdery mildew, irrigation treatment (Test Example 11); format: in vivo; details: concentration 500 ppm, cucumber (Sagami-hanjiro)
Experimental: An agent comprising the following compound listed in Table 2 (active ingredient A) and the compound listed in Table 6 (C18: active ingredient B), was prepared in accordance with the above Formulation Example. This agent was diluted with water to a predetermined concentration to obtain a test solution. 5 ml of the test solution was irrigated by a pipette to the close-to-ground part of cucumber seedlings at the 1 leaf stage (variety: Sagami-hanjiro), grown in a styrol cup with a diameter of 10 cm, and next day, the seedlings were transplanted to the to 4 cun pots. Then, after cultivation for 7 days in a glass greenhouse, to the first true leaf of the cucumber, a spore suspension (100,000 cfu/ml) of cucumber powdery mildew (Sphaerotheca cucurbitae) was inoculated by spraying. After 10 days in a glass greenhouse, the ratio of the formed lesion area occupying the inoculated leaves was measured, and the preventive value was calculated in accordance with the following formula. Preventive value=[1−(treated plot lesion area ratio/untreated plot lesion area ratio)]×100
Further, from the preventive value at each agent concentration, synergy was calculated by using the Colby method (Colby S. R. 1976, Weeds 15, 20-22).

[2] = test system: cucumber gray mold fungus (Botrytis cinerea); assay: Preventive test against gray mold on cucumber cotyledon leaves, spray treatment, preventive value and Colby expected value (Test Examples 1-4); format: in vivo; details: single compound; for pest or weed control at 3 ppm / pest or weed control at 1 ppm: Botrytis cinerea, 72 h; for pest or weed control at 3 ppm: read-out: Preventive value
Outline: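 Cucumber (Sagami-hanjiro) cotyledons sprayed with water-diluted formulations of ingredient A, B or mixtures, air-dried, detached, and drop-inoculated with Botrytis cinerea conidia mixed 1:1 with PDA. After 3 days at 20 °C, lesion area gave preventive value versus untreated; Colby expected value E=X+Y−XY/100 computed for mixtures.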

| melting point | Structure (SMILES) | Preventive value [1] | Preventive value ([2]; Test Example 1, 3 ppm spray) | Preventive value ([2]; Test Example 3, 3 ppm spray) | Preventive value ([2]; Test Example 4, 3 ppm spray) | further results |
| --- | --- | --- | --- | --- | --- | --- |
| 102 to 103 °C | CC#Cc1cnc(/C(CNC(=O)c2cn(C)nc2C(F)F)=N\OC(C)C)c(Cl)c1 [Compound No. 20, (Z)—N-[2-[3-chloro-5-(1-propynyl)pyridin-2-yl]-2-(isopropoxyimino)ethyl]-3-difluoromethyl-1-methyl-1H-pyrazole-4-carboxamide] | 100 | – | – | – | pest or weed control at 3 ppm ([2]; Test Example 1, 3 ppm spray): 63%; pest or weed control at 3 ppm ([2]; Test Example 3, 3 ppm spray): 65%; pest or weed control at 3 ppm ([2]; Test Example 4, 3 ppm spray): 65% |
| 105 to 107 °C | CC(C)O/N=C(/CNC(=O)c1cn(C)nc1C(F)F)c1ncc(C#CC2CC2)cc1Cl [Compound No. 25, (Z)—N-[2-[3-chloro-5-(cyclopropylethynyl)pyridin-2-yl]-2-(isopropoxyimino)ethyl]-3-difluoromethyl-1-methyl-1H-pyrazole-4-carboxamide] | 100 | – | – | – | pest or weed control at 1 ppm ([2]; Test Example 2, 1 ppm spray): 63%; pest or weed control at 1 ppm ([2]; Test Example 3, 1 ppm spray): 75%; pest or weed control at 1 ppm ([2]; Test Example 4, 1 ppm spray): 75% |
| – | CC(C)ON=C(CNC(=O)c1ccccc1C(F)(F)F)c1ncc(C(F)(F)F)cc1Cl [compound 14] | 22.5 | 75 | 75 | 65 | – |
| – | COc1c(Cl)cnc(C(CNC(=O)c2ccccc2C(F)(F)F)=NOC(C)C)c1Cl [Compound No. 9] | 95 | – | – | – | Preventive value ([2]; Test Example 1, 1 ppm spray, cucumber cotyledon, 3 days at 20° C.): 75; Preventive value ([2]; Test Example 3, 1 ppm spray): 70; Preventive value ([2]; Test Example 4, 1 ppm spray): 72 |
| – | CON=C(CNC(=O)c1cn(C)nc1C(F)F)c1ncc(C#CC(C)(C)C)cc1Cl [compound 28] | 75 | 75 | 77 | 75 | – |
| – | CC(C)O/N=C(/CNC(=O)c1ccccc1C(F)(F)F)c1ncc(Cl)cc1Cl [Compound No. 4] | 60 | 75 | 70 | 60 | – |
